# Measured values from US10900040B2, “Methods of reducing or preventing intimal damage caused by mechanical stimulation of endothelial cells” (University of Maryland, Baltimore, priority 2015, dated 2021).
# Tests used:
# spinal cord injury = assay: Outcome from spinal cord injury after antisense oligodeoxynucleotides; assay type: in vivo; settings: TRPM4-AS1 and TRPM4-AS2 used together; phosphorothioated
# Source text: (§1) In certain embodiments of the invention, antagonists of TRPM4 are employed in methods and/or compositions. Antagonists may be of any kind, but in particular embodiments the antagonists are proteins, nucleic acids, small molecules, and so forth. In specific cases, the TRPM4 antagonists comprise flufenamic acid and/or 9-phenanthrol and/or spermine and/or decavanadate and/or BTP2 and/or anti-TRPM4 antibodies. In specific cases, the TRPM4 nucleic acid antagonists comprises RNAi, such as siRNA or shRNA or antisense oligodeoxynucleotides (AS-ODN).
# TRPM4 = assay: Reduction of TRPM4 expression by antisense oligodeoxynucleotides; assay type: in vivo; settings: TRPM4-AS1 and TRPM4-AS2 used together; phosphorothioated
# Source text: as §1
# SUR1-TRPM4 channel = molecular target: T1, SUR1-TRPM4 channel (Homo sapiens, UniProt Q09428+Q8TD43); assay: Patch clamp recordings of SUR1-TRPM4 channel currents in mechanically stimulated endothelial cells; assay type: cell-based; settings: endothelial cells after mechanical stimulation; currents carried by Cs+ ions
# T1 construct: endogenous in cells
# Experimental: FIGS. 2A and 2B. Mechanical stimulation of endothelial cells causes upregulation of functional SUR1-TRPM4 channels. Endothelial cells were cultured in dishes with flexible bottoms and the cells were mechanically stimulated by applying puffs of air to the underside of the dishes. […] FIG. 2B: Amplitudes of SUR1-TRPM4 channel currents measured at −50 mV under control conditions before mechanical activation (CTR), following mechanical activation (STR), following mechanical activation in the presence of the NF-kappaB inhibitor, pyrrolidine dithiocarbamate (PDTC) as negative control, and without mechanical activation, in the presence of tumor necrosis factor alpha (TNFalpha), as positive control.
# Endothelial cells were cultured in dishes with flexible bottoms and the cells were mechanically stimulated by applying puffs of air to the underside of the dishes. […] NFκB activation caused robust transcriptional upregulation of the SUR1-TRPM4 channels 6 hours later (FIGS. 1B and 1C). […] The critical role of the mechanosensitive transcription factor, NF-κB, in Sur1-Trpm4 channel upregulation was confirmed using the NF-κB inhibitor, pyrrolidine dithiocarbamate (PDTC) as negative control, and the NF-κB activator, tumor necrosis factor α (TNFα), as positive control (FIG. 2B).
# T1 sequence (Q09428 whole entry): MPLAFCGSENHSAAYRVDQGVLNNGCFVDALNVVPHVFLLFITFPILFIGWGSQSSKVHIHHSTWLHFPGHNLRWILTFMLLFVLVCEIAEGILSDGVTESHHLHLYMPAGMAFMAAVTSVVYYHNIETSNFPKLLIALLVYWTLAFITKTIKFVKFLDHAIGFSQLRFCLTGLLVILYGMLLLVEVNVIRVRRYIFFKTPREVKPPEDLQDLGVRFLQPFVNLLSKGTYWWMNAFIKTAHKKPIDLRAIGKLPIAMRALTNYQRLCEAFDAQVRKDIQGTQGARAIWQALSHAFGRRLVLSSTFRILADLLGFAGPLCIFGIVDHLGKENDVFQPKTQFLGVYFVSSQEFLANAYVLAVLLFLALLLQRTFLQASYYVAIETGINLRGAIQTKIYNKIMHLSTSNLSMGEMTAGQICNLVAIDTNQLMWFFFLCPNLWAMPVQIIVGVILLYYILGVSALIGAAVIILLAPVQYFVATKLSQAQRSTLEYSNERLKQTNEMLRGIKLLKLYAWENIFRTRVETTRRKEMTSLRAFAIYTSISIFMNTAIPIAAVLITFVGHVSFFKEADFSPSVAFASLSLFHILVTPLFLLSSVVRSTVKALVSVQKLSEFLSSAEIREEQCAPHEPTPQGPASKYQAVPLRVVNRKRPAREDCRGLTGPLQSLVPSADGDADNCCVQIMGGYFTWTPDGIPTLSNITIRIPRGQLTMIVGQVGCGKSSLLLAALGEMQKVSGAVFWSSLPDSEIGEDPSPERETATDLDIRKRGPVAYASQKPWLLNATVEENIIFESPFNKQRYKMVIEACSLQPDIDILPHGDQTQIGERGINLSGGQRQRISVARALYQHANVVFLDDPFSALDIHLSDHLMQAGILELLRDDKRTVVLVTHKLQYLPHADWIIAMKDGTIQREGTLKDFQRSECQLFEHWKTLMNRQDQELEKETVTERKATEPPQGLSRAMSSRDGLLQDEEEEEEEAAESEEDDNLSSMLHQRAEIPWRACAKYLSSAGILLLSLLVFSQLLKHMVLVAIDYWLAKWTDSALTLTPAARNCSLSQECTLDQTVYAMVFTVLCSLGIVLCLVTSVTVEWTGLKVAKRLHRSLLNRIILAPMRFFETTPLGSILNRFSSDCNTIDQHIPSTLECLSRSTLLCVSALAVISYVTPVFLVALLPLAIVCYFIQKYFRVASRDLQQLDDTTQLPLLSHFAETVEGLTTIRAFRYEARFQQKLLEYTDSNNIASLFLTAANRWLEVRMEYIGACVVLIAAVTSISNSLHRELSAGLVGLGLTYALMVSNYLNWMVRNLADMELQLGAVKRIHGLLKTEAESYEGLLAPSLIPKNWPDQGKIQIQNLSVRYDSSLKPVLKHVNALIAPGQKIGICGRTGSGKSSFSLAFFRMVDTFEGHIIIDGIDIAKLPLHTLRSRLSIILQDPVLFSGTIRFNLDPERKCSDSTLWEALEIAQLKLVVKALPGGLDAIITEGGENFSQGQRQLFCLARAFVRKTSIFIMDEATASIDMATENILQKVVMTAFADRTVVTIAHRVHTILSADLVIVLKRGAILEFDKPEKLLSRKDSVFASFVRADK
# T1 sequence (Q8TD43 whole entry): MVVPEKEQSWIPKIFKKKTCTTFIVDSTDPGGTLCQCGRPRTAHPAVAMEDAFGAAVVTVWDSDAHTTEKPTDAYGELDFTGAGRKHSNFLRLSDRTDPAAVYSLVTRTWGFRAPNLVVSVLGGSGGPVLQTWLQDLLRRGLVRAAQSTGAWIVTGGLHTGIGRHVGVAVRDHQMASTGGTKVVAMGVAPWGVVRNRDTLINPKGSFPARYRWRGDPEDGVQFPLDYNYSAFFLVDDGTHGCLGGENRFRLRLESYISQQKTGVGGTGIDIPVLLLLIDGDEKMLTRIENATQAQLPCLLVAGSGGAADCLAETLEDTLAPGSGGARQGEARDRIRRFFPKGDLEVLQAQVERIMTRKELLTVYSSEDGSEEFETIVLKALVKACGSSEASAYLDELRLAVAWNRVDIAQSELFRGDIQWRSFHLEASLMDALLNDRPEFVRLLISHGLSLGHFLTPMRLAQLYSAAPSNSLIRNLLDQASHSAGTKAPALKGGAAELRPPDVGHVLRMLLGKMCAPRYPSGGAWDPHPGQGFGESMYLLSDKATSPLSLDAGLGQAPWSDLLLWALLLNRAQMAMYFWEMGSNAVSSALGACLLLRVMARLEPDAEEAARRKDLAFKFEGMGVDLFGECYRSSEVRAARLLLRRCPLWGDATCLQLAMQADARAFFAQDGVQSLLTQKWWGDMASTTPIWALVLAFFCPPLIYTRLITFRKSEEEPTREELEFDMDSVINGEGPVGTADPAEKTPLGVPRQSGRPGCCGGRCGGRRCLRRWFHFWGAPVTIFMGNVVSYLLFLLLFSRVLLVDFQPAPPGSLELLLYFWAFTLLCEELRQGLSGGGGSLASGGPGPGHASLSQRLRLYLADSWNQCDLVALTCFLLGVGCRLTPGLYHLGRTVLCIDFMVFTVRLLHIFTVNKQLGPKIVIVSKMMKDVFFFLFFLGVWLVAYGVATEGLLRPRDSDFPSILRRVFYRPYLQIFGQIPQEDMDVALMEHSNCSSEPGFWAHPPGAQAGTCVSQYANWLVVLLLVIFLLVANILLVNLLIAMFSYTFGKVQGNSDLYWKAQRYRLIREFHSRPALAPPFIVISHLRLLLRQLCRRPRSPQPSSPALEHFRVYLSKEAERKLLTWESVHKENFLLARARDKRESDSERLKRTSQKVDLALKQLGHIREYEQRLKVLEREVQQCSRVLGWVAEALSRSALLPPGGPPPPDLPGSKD
Molecule,improving outcome from spinal cord injury (spinal cord injury),reducing TRPM4 expression (TRPM4),effect on SUR1-TRPM4 channel currents (patch clamp) (SUR1-TRPM4 channel)
"5′-CTGCGATAGCACTCGCCAAA-3′ (chemistry not given here) [TRPM4-AS2, antisense oligodeoxynucleotide against TRPM4]",highly effective,highly effective,–
"5′-GTGTGCATCGCTGTCCCACA-3′ (chemistry not given here) [TRPM4-AS1, antisense oligodeoxynucleotide against TRPM4]",highly effective,highly effective,–
CNC[C@H](O)[C@@H](O)[C@H](O)[C@H](O)CO [N-methyl-D-glucamine],–,–,channel blockade
